Measured values taken from patent publication US10213427B2 (Incyte Corporation, priority 2010, dated 2019).

Target: FGFR3 enzyme (Millipore) (Homo sapiens (Human), UniProt P22607)
Assay: FGFR3 Enzymatic Assay
Format: biochemical
Conditions: FRET peptide phosphorylation, 140 μM ATP
Outline: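 FGFR3 preincubated 5-10 min with serially diluted inhibitor in 50 mM HEPES pH 7.5, 10 mM MgCl2, 1 mM EGTA, 5 mM DTT, then reacted 1 h at 25 °C. Peptide phosphorylation detected by FRET; IC50 from variable-slope sigmoidal fit.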

Sequence of FGFR3 enzyme (Millipore) (P22607 23-806): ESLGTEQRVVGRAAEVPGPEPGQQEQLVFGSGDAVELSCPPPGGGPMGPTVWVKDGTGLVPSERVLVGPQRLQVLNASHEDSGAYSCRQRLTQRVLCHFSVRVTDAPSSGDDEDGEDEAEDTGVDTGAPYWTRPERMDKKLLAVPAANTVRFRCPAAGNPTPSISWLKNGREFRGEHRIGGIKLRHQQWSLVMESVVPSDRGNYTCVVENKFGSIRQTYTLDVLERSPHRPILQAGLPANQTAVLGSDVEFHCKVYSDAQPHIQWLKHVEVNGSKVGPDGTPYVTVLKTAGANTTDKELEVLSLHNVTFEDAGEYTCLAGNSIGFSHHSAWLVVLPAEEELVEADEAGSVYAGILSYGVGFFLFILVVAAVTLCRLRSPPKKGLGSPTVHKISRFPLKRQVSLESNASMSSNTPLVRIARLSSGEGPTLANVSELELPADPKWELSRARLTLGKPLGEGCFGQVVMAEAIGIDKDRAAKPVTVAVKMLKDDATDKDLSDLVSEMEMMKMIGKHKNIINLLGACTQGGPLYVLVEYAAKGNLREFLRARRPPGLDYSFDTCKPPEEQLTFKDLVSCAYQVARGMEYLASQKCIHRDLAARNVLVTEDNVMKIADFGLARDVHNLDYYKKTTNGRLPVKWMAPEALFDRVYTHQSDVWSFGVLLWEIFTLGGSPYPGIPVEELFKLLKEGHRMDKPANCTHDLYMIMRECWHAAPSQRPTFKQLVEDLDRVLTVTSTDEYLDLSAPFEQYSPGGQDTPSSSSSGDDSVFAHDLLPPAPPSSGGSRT

With CC(C(=O)NCCN1CCCC1=O)n1cc(-c2cnn3c(-c4cccc(NC(=O)NCC(F)(F)F)c4)cnc3c2)cn1 (centres unmarked) [Example 62, N-[2-(2-Oxopyrrolidin-1-yl)ethyl]-2-(4-{3-[3-({[(2,2,2-trifluoroethyl)amino]carbonyl}amino)phenyl]imidazo[1,2-b]pyridazin-7-yl}-1H-pyrazol-1-yl)propanamide] the IC50 was under 10 nM.

With CN(C)CC(=O)N1CCC(n2cc(-c3cnn4c(-c5cccc(NC(=O)NCC(F)(F)F)c5)cnc4c3)cn2)CC1 [Example 33, N-{3-[7-(1-{1-[(Dimethylamino)acetyl]piperidin-4-yl}-1H-pyrazol-4-yl)imidazo[1,2-b]pyridazin-3-yl]phenyl}-N′-(2,2,2-trifluoroethyl)urea] the IC50 was under 10 nM.
